Measured values as given in patent US20230303693A1, “BISPECIFIC ANTIBODY AGAINST CD3 AND CD20 IN COMBINATION THERAPY FOR TREATING DIFFUSE LARGE B-CELL LYMPHOMA” (GENMAB A/S, priority 2022, published 2023).
Like-named read-outs stand apart in the source and are kept apart here.

Assays:
[1] = system: primary DLBCL and follicular lymphoma patient biopsies; settings: cited from earlier work
[2] = system: CD20-expressing Raji-luc tumor cells; settings: NOD-SCID mice injected with Raji-luc tumor cells and PBMCs; even in presence of excess IgG1-RTX-FEAR; cited from earlier work
[3] = system: relapsed or refractory (R/R) B-NHL, highly refractory large B-cell lymphoma; settings: monotherapy, n=157; cited from earlier work
T cells [4] = system: T cells
T cells [5] = test: T cell viability after 16 hours pre-incubation with CHP components; settings: pretreatment of T cells, 16 hours (data not shown)

**Q.** Which T-cell-mediated cytotoxicity ([1]; biopsies taken a certain amount of time after administration of an anti-CD20 antibody) does the source give for epcoritamab here?
**A.** induced T-cell-mediated cytotoxicity

**Q.** What about the tumor cell kill ([1]; biopsy taken 2 weeks after administering anti-CD20 antibody) of the same molecule?
**A.** up to 40%

**Q.** And the tumor growth [2]?
**A.** effectively reduce tumor growth

**Q.** What about the “complete response (CR) rate” value [3] of the same molecule?
**A.** 39%

**Q.** And the “median duration of response (DOR)” value [3]?
**A.** 12 months

**Q.** What about the “overall response rate (ORR)” value [3] of the same molecule?
**A.** 63%

**Q.** What about the safety profile [3] of the same molecule?
**A.** manageable safety profile

**Q.** For `O=P1(N(CCCl)CCCl)NCCCO1` (stereo not drawn) [cyclophosphamide, 2H-1,3,2-Oxazaphosphorin-2-amine, N,N-bis(2-chloroethyl)tetrahydro-, 2-oxide], which T cell viability (T cells [4]) is on record?
**A.** did not impact T cell viability

**Q.** Which T cell viability (T cells [5]) does the source give for `COc1cccc2c1C(=O)c1c(O)c3c(c(O)c1C2=O)C[C@@](O)(C(=O)CO)C[C@@H]3O[C@H]1C[C@H](N)[C@H](O)[C@H](C)O1` [doxorubicin] here?
**A.** led to a reduction in T cell viability
